Assay results reported in DBAASP.
≈ marks a conversion by molar mass, not a printed value.

How the values were obtained:
[1] = system: Staphylococcus aureus ATCC 25923; experiment: ≥ marks a high value that may be exact or a test limit, other limits are often not marked, values filed in µg/mL are converted to µM
[2] = system: Escherichia coli ATCC 25922; experiment: as above

SMILES | MIC [1] [µM] | MIC [2] [µM]
CSCC[C@H](NC(=O)[C@H](Cc1c[nH]c2ccccc12)NC(=O)[C@H](CC(C)C)NC(=O)[C@H](C)N)C(=O)N[C@H](C(=O)N[C@@H](CC(C)C)C(=O)N[C@@H](CC(C)C)C(=O)N[C@@H](CCCCN)C(=O)N[C@@H](CCCCN)C(=O)N[C@H](C(=O)N[C@@H](CC(C)C)C(=O)N[C@@H](CCCCN)C(=O)N[C@@H](C)C(N)=O)C(C)C)[C@@H](C)O [ALWMTLLKKVLKA] | 6 (≈ 9.08 µg/mL) | 25 (≈ 37.9 µg/mL)
CC(C)C[C@H](NC(=O)[C@H](CCC(N)=O)NC(=O)[C@H](CCCCN)NC(=O)[C@H](CCCN=C(N)N)NC(=O)[C@@H]1CCCN1C(=O)[C@H](C)N)C(=O)N[C@@H](CCCCN)C(=O)N[C@@H](Cc1c[nH]c2ccccc12)C(=O)O [APRKQLKW] |  | 7.8 (≈ 8 µg/mL)
CC(C)C[C@H](NC(=O)[C@H](CC(C)C)NC(=O)[C@H](CC(C)C)NC(=O)[C@@H]1CCCN1C(=O)[C@H](CC(C)C)NC(=O)[C@@H](N)Cc1ccccc1)C(=O)N[C@@H](C)C(=O)NCC(=O)N[C@@H](CC(C)C)C(=O)N1CCC[C@H]1C(=O)N[C@@H](CCCCN)C(=O)N[C@@H](CC(C)C)C(=O)N[C@@H](CC(C)C)C(=O)N[C@H]1CSSC[C@@H](C(=O)O)NC(=O)[C@H](CCCCN)NC(=O)[C@H](CCCCN)NC(=O)[C@H](Cc2ccccc2)NC(=O)[C@H](Cc2ccccc2)NC(=O)[C@H](CC(C)C)NC1=O [FLPLLLAGLPKLLCLFFKKC] | 15 (≈ 34.1 µg/mL) | 15 (≈ 34.1 µg/mL)
CC[C@H](C)[C@H](NC(=O)[C@H](Cc1ccccc1)NC(=O)CN)C(=O)N[C@@H](CO)C(=O)N[C@H](C(=O)N[C@H](C(=O)N[C@@H](CCCCN)C(=O)N[C@@H](CC(N)=O)C(=O)N[C@@H](CC(C)C)C(=O)N[C@@H](C)C(=O)N[C@H](C(=O)N[C@@H](CC(N)=O)C(=O)N[C@H](C(=O)N[C@@H](C)C(=O)NCC(=O)N[C@H](C(=O)N[C@H](C(=O)N[C@H](C(=O)N[C@@H](CC(=O)O)C(=O)N[C@H](C(=O)N[C@H](C(=O)N[C@@H](CCCCN)C(=O)N[C@H]1CSSC[C@@H](C(=O)O)NC(=O)CNC(=O)CNC(=O)[C@H]([C@@H](C)O)NC(=O)[C@H](C(C)C)NC(=O)[C@H](CCCCN)NC1=O)[C@@H](C)CC)[C@@H](C)O)[C@@H](C)CC)C(C)C)[C@@H](C)O)C(C)C)[C@@H](C)O)C(C)C)[C@@H](C)O [GFISTVKNLATNVAGTVIDTIKCKVTGGC] |  | 110 (≈ 320 µg/mL)
CC[C@H](C)[C@H](NC(=O)CN)C(=O)N[C@@H](CCSC)C(=O)N[C@@H](CC(=O)O)C(=O)N[C@H](C(=O)N[C@H](C(=O)N[C@@H](CCCCN)C(=O)N[C@@H](CC(N)=O)C(=O)N[C@@H](C)C(=O)N[C@@H](C)C(=O)N[C@@H](CCCCN)C(=O)N[C@@H](CC(=O)O)C(=O)N[C@@H](CC(C)C)C(=O)N[C@@H](C)C(=O)NCC(=O)N[C@@H](CCC(N)=O)C(=O)N[C@@H](CC(C)C)C(=O)N[C@@H](CC(C)C)C(=O)N[C@@H](CC(=O)O)C(=O)N[C@@H](CCCCN)C(=O)N[C@@H](CC(C)C)C(=O)N[C@@H](CCCCN)C(=O)N[C@H]1CSSC[C@@H](C(=O)O)NC(=O)CNC(=O)[C@H]([C@@H](C)O)NC(=O)[C@H]([C@@H](C)CC)NC(=O)[C@H](CCCN=C(N)N)NC1=O)C(C)C)[C@@H](C)O [GIMDTVKNAAKDLAGQLLDKLKCRITGC] |  | 3 (≈ 8.92 µg/mL)
CC[C@H](C)[C@H](NC(=O)[C@H](CCC(=O)O)NC(=O)[C@H](C)NC(=O)[C@@H](NC(=O)[C@H](CCCCN)NC(=O)[C@H](CCCCN)NC(=O)CN)[C@@H](C)O)C(=O)N[C@@H](CCC(=O)O)C(=O)N[C@@H](CCCCN)C(=O)O [GKKTAEIEK] | 1250 (≈ 1250 µg/mL) | 2490 (≈ 2500 µg/mL)
CC[C@H](C)[C@H](NC(=O)[C@H](CCCCN)NC(=O)[C@H](CC(C)C)NC(=O)[C@H](CC(C)C)NC(=O)CN)C(=O)N[C@H](C(=O)N[C@@H](CCCCN)C(=O)N[C@H](C(=O)N[C@@H](CC(C)C)C(=O)N[C@@H](CC(C)C)C(N)=O)[C@@H](C)O)[C@@H](C)CC [GLLKIIKTLL] | 1.8 (≈ 2 µg/mL) | 1.8 (≈ 2 µg/mL)
CC[C@H](C)[C@H](NC(=O)[C@H](CCCN=C(N)N)NC(=O)[C@H](CCCCN)NC(=O)[C@H](CC(C)C)NC(=O)[C@H](CC(C)C)NC(=O)CN)C(=O)N[C@@H](CCCCN)C(=O)N[C@H](C(=O)N[C@@H](CC(C)C)C(=O)N[C@@H](CC(C)C)C(N)=O)C(C)C [GLLKRIKVLL] | 19.1 (≈ 22 µg/mL) | 19.1 (≈ 22 µg/mL)
CC[C@H](C)[C@H](NC(=O)[C@H](CCCN=C(N)N)NC(=O)[C@H](CCCCN)NC(=O)[C@H](CC(C)C)NC(=O)[C@H](CC(C)C)NC(=O)CN)C(=O)N[C@@H](CCCCN)C(=O)N[C@@H](Cc1c[nH]c2ccccc12)C(=O)N[C@@H](CC(C)C)C(=O)N[C@@H](CC(C)C)C(N)=O [GLLKRIKWLL] | 3.23 (≈ 4 µg/mL) | 1.61 (≈ 2 µg/mL)
CC[C@H](C)[C@H](NC(=O)[C@H](CCCN=C(N)N)NC(=O)[C@H](CCCCN)NC(=O)[C@H](CCSC)NC(=O)[C@H](CC(C)C)NC(=O)CN)C(=O)N[C@@H](CCCCN)C(=O)N[C@H](C(=O)N[C@@H](CCSC)C(=O)N[C@@H](CC(C)C)C(N)=O)[C@@H](C)O [GLMKRIKTML] |  | > 200
CC(C)[C@@H]1NC(=O)CNC(=O)[C@H](CCCN=C(N)N)NC(=O)[C@H](CCCN=C(N)N)NC(=O)[C@@H]2CSSC[C@H](NC1=O)C(=O)N[C@@H](CCCN=C(N)N)C(=O)N[C@H]1CSSC[C@H](NC(=O)[C@H](CCCN=C(N)N)NC(=O)[C@@H](NC(=O)[C@@H](NC(=O)CN)C(C)C)CSSC[C@@H](C(=O)N[C@@H](CCCN=C(N)N)C(=O)N[C@@H](CCCN=C(N)N)C(=O)O)NC(=O)[C@H](C(C)C)NC1=O)C(=O)N[C@@H](C(C)C)C(=O)N2 [GVCRCVCRRGVCRCVCRR] | > 32 | 32 (≈ 66.5 µg/mL)
CC[C@H](C)[C@H](NC(=O)[C@H](CCCN=C(N)N)NC(=O)[C@H](CCCCN)NC(=O)[C@H](CC(C)C)NC(=O)[C@H](CC(C)C)NC(=O)[C@@H](N)CCCCN)C(=O)N[C@@H](CCCCN)C(=O)N[C@@H](CCCCN)C(=O)N[C@@H](CC(C)C)C(=O)N[C@@H](CC(C)C)C(N)=O [KLLKRIKKLL] | 22.4 (≈ 28 µg/mL) | 29.5 (≈ 37 µg/mL)
NC(=O)[C@H](CCCN=C(N)N)NC(=O)[C@H](Cc1c[nH]c2ccccc12)NC(=O)[C@H](Cc1c[nH]c2ccccc12)NC(=O)[C@@H](N)CCCN=C(N)N [RWWR] | 142 (≈ 99.9 µg/mL) | > 285
CC(C)C[C@H](NC(=O)[C@H](Cc1ccccc1)NC(=O)[C@@H]1CCCN1C(=O)[C@H](Cc1c[nH]c2ccccc12)NC(=O)[C@H](Cc1c[nH]c2ccccc12)NC(=O)[C@H](Cc1ccc(O)cc1)NC(=O)[C@@H]1CCCN1C(=O)[C@H](Cc1ccccc1)NC(=O)[C@H](CCCN=C(N)N)NC(=O)[C@H](CCCN=C(N)N)NC(=O)[C@@H](N)C(C)C)C(=O)N[C@@H](CCCN=C(N)N)C(=O)N[C@@H](CCCN=C(N)N)C(N)=O [VRRFPYWWPFLRR] |  | 16 (≈ 30.1 µg/mL)
NC(=O)[C@H](Cc1c[nH]c2ccccc12)NC(=O)[C@H](CCCN=C(N)N)NC(=O)[C@H](CCCN=C(N)N)NC(=O)[C@H](CCCN=C(N)N)NC(=O)[C@H](Cc1c[nH]c2ccccc12)NC(=O)[C@@H](N)Cc1c[nH]c2ccccc12 [WWRRRW] | 9.57 (≈ 9.99 µg/mL) | 23.9 (≈ 25 µg/mL)
